According to patent publication US20250170212A1, “COMPOSITIONS AND METHODS OF TREATING AMYOTROPHIC LATERAL SCLEROSIS (ALS) AND RELATED DISORDERS” (BIOINCEPT, LLC, priority 2022, published 2025):

System: IL-1α
Test: Serum cytokine analysis, multiplex ELISA
Format: in vivo, mouse
Conditions: serum collected weekly; compared to Injury and mGRPs groups
Procedure: Samples were collected every week, starting from day of graft transplantation (day 0), 100 μl of blood from mouse tail. Blood was stored 1 h in room temperature, and overnight in +4° C. Serum was gently aspirated, and centrifuged 10 min with 2000 RPM to separate blood morphotic bodies. Purified serum was stored in −80° C. until further analysis. Multiplex ELISA 23-cytokine kit (M60009RDPD) was obtained from Bio-Rad (Bio-Plex Pro Mouse Cytokine 23-plex Assay #M60009RDPD, Hercules, Bio-Rad, CA, USA, RRID: AB_2857368) and performed according to instructions. 50 μl of diluted in sample diluent, 1:4 serum samples and diluted at range 1:10-1:20. Measurement standards were used, diluted 9 times according to the protocol and added at template plate. Vortexed beads were added to the assay 96-well plate. Plate was again washed 3 times with wash buffer, then from template plate, 50 μl of samples, standards and blank were transferred to measurement plate with multichannel pipette. Plate was sealed with tape and incubated 30 min. After this time, plate was washed 3 times. 25 μl of detection antibody was added to the wells with multichannel pipette. Plate was sealed and incubated for 30 min. and next washed 3 times using wash buffer. […] Beads were resuspended with 125 μl of assay buffer and analysis was performed with Bio Plex 200 reader.
All quantifications were performed including the manual cell counts in a blinded manner. The NeuN and Ibal were counted as positive cells in the ROI (see above) as previously reported. The number of cells was determined by unbiased counting of positive cells. […] Differences between groups were analyzed using a repeated measure ANOVA model with a fixed effect for the group, of the time and a random intercept for the mouse. In a second, more explorative, approach for each group the time when the physical activity was first measured below a certain threshold was determined. […] The clinically relevant threshold was determined according to previous observations and defined as value 0.9 for the Wire Test. […] The statistical significance at p<0.05 was then determined.

C=CC[C@@H]1/C=C(\C)C[C@H](C)C[C@H](OC)[C@H]2O[C@@](O)(C(=O)C(=O)N3CCCC[C@H]3C(=O)O[C@H](/C(C)=C/[C@@H]3CC[C@@H](O)[C@H](OC)C3)[C@H](C)[C@@H](O)CC1=O)[C@H](C)C[C@@H]2OC [Tac, Tacrolimus, reference compound]
peripheral IL-1α cytokine peak: decreased IL-1α peak significantly
